Experimental data taken from patent US20230047816A1 (priority 2018, published 2023).
Where a name gives a salt, the structure may show the parent alone. One block for each molecule: values may come before it.

Columns and labels:
[1] = tested on: T-47D; assay: Combination with anticancer agents, T-47D; type: cell-based; conditions: Homo sapiens, T47D, anticancer agent alone
Procedure: (§1) All cells can be incubated in the plates overnight at 37° C., 5% 002 incubator with different medium.

[2] = target: Recombinant full length human PFKFB3 (Homo sapiens, UniProt Q16875); assay: PFKFB3 kinase activity assay (ADP production, ADP-Glo)
[3] = target: Recombinant full length human PFKFB4 (Homo sapiens, UniProt Q16877); assay: PFKFB4 kinase activity assay (ADP production, ADP-Glo)
[4] = target: PFKFB3 (Homo sapiens, UniProt Q16875); conditions: reported in the literature; cited from earlier work
[5] = reported in the literature; cited from earlier work
[6] = tested on: established tumors; conditions: reported in the literature; cited from earlier work
[7] = tested on: activated T-cells; conditions: reported in the literature; cited from earlier work
[8] = tested on: angiogenesis; conditions: reported in the literature; cited from earlier work
[9] = tested on: neurons; assay: Neuroprotection, protection factor, NMDA treatment; type: cell-based; conditions: Treatment NMDA 100 μM 10 minutes, then inhibitor 24 hours
Procedure: (§2) For NMDAR activation, neurons at 8 days in vitro were incubated 100 μM NMDA (plus 10 μM glycine) for 10 minutes. Neurons were then washed and further incubated in culture medium with the PFKFB3 inhibitors for 24 hours. For b-amyloid treatment, neurons at 8 days in vitro were incubated with […] b-amyloid plus the PFKFB3 inhibitors for 24 hours. The Protection factor was estimated as [AMC(beta-A)−AMC(DMSO)]/[AMC(beta-A)−AMC(Test article)] or [AMC(beta-A)−AMC(DMSO)]/[AMC(NMDA)−AMC(Test article)], where:
(§3) AMC(DMSO)—% dead neuron in case of DMSO treatment
AMC(NMDA)—% dead neuron in case of NMDA treatment
(§4) AMC(Test article)—% dead neuron in case of PFKFB3 inhibitors treatment.

[10] = tested on: MDA-MB-468; assay: Combination with anticancer agents, MDA-MB-468; type: cell-based; conditions: Homo sapiens, anticancer agent alone
Procedure: as §1

[11] = tested on: neurons; assay: Neuroprotection, protection factor, b-amyloid treatment; type: cell-based; conditions: Treatment beta-amyloid, 24 hours
Procedure: as §2, §3
AMC(beta—A)—% dead neuron in case of b—amyloid treatment
as §4

[12] = tested on: HUVEC spheroids; assay: VEGF-A induced sprouting, spheroid-based cellular angiogenesis assay; type: cell-based; conditions: Homo sapiens
Procedure: The effect of PFKFB3 inhibitors on VEGF-A induced sprouting of HUVECs in a spheroid-based cellular angiogenesis assay. Sunitinib was used as a control. The experiments were pursued in modification of the originally published protocol (Korff and Augustin: J Cell Sci 112: 3249-58, 1999). In brief, spheroids were prepared as described (Korff and Augustin: J Cell Biol 143:1341-52, 1998) by pipetting 500 HUVEC in a hanging drop on plastic dishes to allow overnight spheroid aggregation. 50 HUVEC spheroids were then seeded in 0.9 ml of a collagen gel and pipetted into individual wells of a 24 well plate to allow polymerization. The test compounds in combination with the growth factor VEGF-A at 25 ng/ml final assay concentration) were added after 30 min by pipetting 100 μl of a 10-fold concentrated working solution on top of the polymerized gel. Plates were incubated at 37° C. for 24 hours and fixed by adding 4% Roti-Histofix (Roth, Karlsruhe, Germany). Sprouting intensity of HUVEC spheroids treated with the growth factor and the inhibitors were quantitated by an image analysis system determining the cumulative sprout length per spheroid (CSL) using an inverted microscope and the digital imaging software NIS-Elements BR 3.0 (Nikon). The mean of the cumulative sprout length of 10 randomly selected spheroids was analyzed as an individual data point.

Recombinant full length human PFKFB4, sequence (Q16877 whole entry): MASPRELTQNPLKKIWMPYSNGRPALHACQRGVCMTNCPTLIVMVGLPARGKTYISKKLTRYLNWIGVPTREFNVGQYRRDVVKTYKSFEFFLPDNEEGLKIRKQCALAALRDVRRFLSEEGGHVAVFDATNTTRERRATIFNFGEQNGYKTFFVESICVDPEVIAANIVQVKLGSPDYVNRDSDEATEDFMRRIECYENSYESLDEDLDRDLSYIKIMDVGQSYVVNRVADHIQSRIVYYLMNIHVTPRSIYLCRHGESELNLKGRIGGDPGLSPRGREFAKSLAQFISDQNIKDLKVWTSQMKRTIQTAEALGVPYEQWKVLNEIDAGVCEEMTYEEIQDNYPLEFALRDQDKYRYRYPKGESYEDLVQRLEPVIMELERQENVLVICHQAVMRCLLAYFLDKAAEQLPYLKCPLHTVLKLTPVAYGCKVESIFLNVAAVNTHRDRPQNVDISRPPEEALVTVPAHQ
Recombinant full length human PFKFB3, sequence (Q16875 whole entry): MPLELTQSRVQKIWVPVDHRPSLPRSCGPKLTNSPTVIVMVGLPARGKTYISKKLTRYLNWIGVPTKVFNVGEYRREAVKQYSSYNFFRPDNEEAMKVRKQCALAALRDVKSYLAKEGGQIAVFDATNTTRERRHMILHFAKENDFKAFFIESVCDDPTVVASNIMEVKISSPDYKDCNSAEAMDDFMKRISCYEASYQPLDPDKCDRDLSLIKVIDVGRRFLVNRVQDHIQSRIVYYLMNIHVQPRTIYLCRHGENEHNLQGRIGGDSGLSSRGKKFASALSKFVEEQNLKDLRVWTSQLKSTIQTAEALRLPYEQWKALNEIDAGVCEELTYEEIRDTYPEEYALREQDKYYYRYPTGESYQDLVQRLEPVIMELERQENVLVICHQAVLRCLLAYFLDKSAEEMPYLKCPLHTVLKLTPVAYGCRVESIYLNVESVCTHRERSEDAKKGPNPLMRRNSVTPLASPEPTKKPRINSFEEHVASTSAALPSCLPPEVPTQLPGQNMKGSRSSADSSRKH
PFKFB3, sequence (Q16875 whole entry, species assumed): as the sequence (Q16875 whole entry) above

- IC50 [1]: 38.6 µM
Structure (SMILES): O=C(c1cc(Cc2n[nH]c(=O)c3ccccc23)ccc1F)N1CCN(C(=O)C2CC2)CC1 [Olaparib]

- IC50 [2]: < 0.5 µM
- IC50 [3]: < 0.5 µM
Structure (SMILES): O=C(O)c1ccc2c(c1)C(=O)N(c1cc(-c3ccc(Cl)c(F)c3)ccc1C(=O)O)C2=O [Compound 143, 2-(4-Carboxy-4′-chloro-3′-fluoro[1,1′-biphenyl]-3-yl)-1,3-dioxo-2,3-dihydro-1H-isoindole-5-carboxylic acid]

Structure (SMILES): O=C(C=Cc1cccnc1)c1ccncc1 [Compound 3PO, 3-(3-pyridinyl)-1-(4-pyridinyl)-2-propen-1-one]
- PFKFB3 inhibition [4]: inhibit PFKFB3
- glucose uptake [5]: reduce glucose uptake
- intracellular concentration of Fru-2,6-BP [5]: reduce intracellular concentration of Fru-2,6-BP
- growth of established tumors in vivo [6]: reduce growth of established tumors in vivo
- proliferation of activated T-cells [7]: inhibit proliferation of activated T-cells
- angiogenesis [8]: inhibit angiogenesis

- IC50 [2]: < 0.5 µM
- IC50 [3]: < 0.5 µM
Structure (SMILES): O=C(O)c1ccc(-c2ccccc2)cc1N1C(=O)c2cc(Cl)c(-c3cnn[nH]3)cc2C1=O [Compound 144c, 3-[5-Chloro-1,3-dioxo-6-(1H-1,2,3-triazol-5-yl)-2,3-dihydro-1H-isoindol-2-yl][1,1′-biphenyl]-4-carboxylic Acid]

- IC50 [2]: < 0.5 µM
- IC50 [3]: < 0.5 µM
Structure (SMILES): O=C(O)c1ccc2c(c1)C(=O)N(c1ccc(-c3ccccc3)cc1C(=O)O)C2=O [Compound 134, 2-(3-Carboxybiphenyl-4-yl)-1,3-dioxo-2,3-dihydro-1H-isoindole-5-carboxylic acid]

Structure (SMILES): O=C(OCC(O)CO)c1ccc(-c2ccc(F)c(F)c2)cc1N1Cc2ccc(-c3cn[nH]n3)cc2C1=O (stereo not shown)
- Protection factors [9]: 1.35

- IC50 [2]: < 20 µM
- IC50 [3]: < 20 µM
Structure (SMILES): CCOC(=O)c1ccc(-c2ccc(F)c(F)c2)cc1N1Cc2ccc(-c3cnn[nH]3)cc2C1=O [compound 166, ethyl 3′,4′-difluoro-3-[1-oxo-6-(1H-1,2,3-triazol-5-yl)-2,3-dihydro-1H-isoindol-2-yl][1,1′-biphenyl]-4-carboxylate]

- IC50 [10]: 0.07 µM
Structure (SMILES): COc1cccc2c1C(=O)c1c(O)c3c(c(O)c1C2=O)C[C@@](O)(C(=O)CO)C[C@@H]3O[C@H]1C[C@H](N)[C@H](O)[C@H](C)O1 [Doxorubicin, Doxorubicin Hydrochloride]

- IC50 [2]: < 0.5 µM
- IC50 [3]: < 0.5 µM
Structure (SMILES): O=C(O)c1ccc(-c2ccc(F)c(F)c2)cc1N1C(=O)c2ccc(-c3c[nH]nn3)cc2C1=O [Compound 82, 3′,4′-Difluoro-3-[1,3-dioxo-5-(1H-[1,2,3]triazol-4-yl)-1,3-dihydroisoindol-2-yl]biphenyl-4-carboxylic Acid]

Structure (SMILES): CC(CN(C)C)OC(=O)c1ccc(-c2ccc(F)c(F)c2)cc1N1Cc2ccc(-c3cn[nH]n3)cc2C1=O (stereo not shown)
- Protection factors [9]: 2.56

Structure (SMILES): CCOC(=O)c1ccc(-c2ccc(F)c(F)c2)cc1N1Cc2ccc(-c3cn[nH]n3)cc2C1=O
- Protection factors [11]: 2.35

Structure (SMILES): O=C(O)c1cc2c(cc1O)C(=O)N(c1cc(-c3ccc(F)c(F)c3)ccc1C(=O)O)C2=O
- Protection factors [11]: 2.15

Structure (SMILES): CC(C)OC(=O)c1ccc(-c2ccc(F)c(F)c2)cc1N1Cc2ccc(-c3cn[nH]n3)cc2C1=O
- Protection factors [11]: 1.43

Structure (SMILES): O=C(/C=C/c1ccc2ccc(C(F)(F)F)cc2n1)c1ccncc1 [ACT-PFK-158, (E)-1-(pyridin-4-yl)-3-(7-(trifluoromethyl)quinolin-2-yl)prop-2-en-1-one]
- PFKFB3 inhibition [4]: inhibit PFKFB3
- glucose uptake [5]: reduce glucose uptake
- intracellular concentration of Fru-2,6-BP [5]: reduce intracellular concentration of Fru-2,6-BP
- growth of established tumors in vivo [6]: reduce growth of established tumors in vivo

- IC50 [2]: < 0.5 µM
- IC50 [3]: < 0.5 µM
Structure (SMILES): O=C(O)c1ccc(-c2ccc(F)c(F)c2)cc1N1C(=O)c2cc(Cl)c(-c3cnn[nH]3)cc2C1=O [Compound 144b, 3-[5-Chloro-1,3-dioxo-6-(1H-1,2,3-triazol-5-yl)-2,3-dihydro-1H-isoindol-2-yl]-3′,4′-difluoro[1,1′-biphenyl]-4-carboxylic Acid]

- IC50 [2]: < 0.5 µM
- IC50 [3]: < 0.5 µM
Structure (SMILES): O=C(O)c1cc2c(cc1O)C(=O)N(c1cc(-c3ccc(F)c(F)c3)ccc1C(=O)O)C2=O [Compound 144a, 2-(4-Carboxy-3′,4′-difluoro[1,1′-biphenyl]-3-yl)-6-hydroxy-1,3-dioxo-2,3-dihydro-1H-isoindole-5-carboxylic acid]

- IC50 [10]: 0.01 µM
Structure (SMILES): CC(=O)O[C@H]1C(=O)[C@@]2(C)[C@H]([C@H](OC(=O)c3ccccc3)[C@]3(O)C[C@H](OC(=O)[C@H](O)[C@@H](NC(=O)c4ccccc4)c4ccccc4)C(C)=C1C3(C)C)[C@]1(OC(C)=O)CO[C@@H]1C[C@@H]2O [Paclitaxel]

Structure (SMILES): Cc1noc(C)c1Cn1cc(C#N)c2cc(Oc3ccc(NC(=O)[C@@H]4CCCN4)cc3)ccc21 [(2S)-N-[4-({3-cyano-1-[(3,5-dimethyl-1,2-oxazol-4-yl)methyl]-1H-indol-5-yl}oxy)phenyl]pyrrolidine-2-carboxamide]
- Protection factors [11]: 1.68

Structure (SMILES): CN(C)CCOC(=O)c1ccc(-c2ccc(Cl)cc2Cl)cc1NC(=O)c1ccc(C(=O)N=S(C)(C)=O)cc1C(=O)O
- Protection factors [11]: 1.43

Structure (SMILES): O=C(O)c1ccc2c(c1)C(=O)N(c1cc(-c3ccc(Cl)cc3Cl)ccc1C(=O)O)C2=O
- Protection factors [11]: 1.75

Structure (SMILES): CCN(CC)CCNC(=O)c1c(C)[nH]c(/C=C2\C(=O)Nc3ccc(F)cc32)c1C [Sunitinib, reference compound]
- Emax ([12]; HUVEC, positive control, read-out: maximal effect (inhibition of vessel sprouting)): 100%
- EC50 ([12]; 3D HUVEC model, VEGF-A 25 ng/ml, 24 hours, read-out: EC50 of inhibition of vessel sprouting): 0.1 µM

Structure (SMILES): O=C1NCC(COC(=O)c2ccc(-c3ccc(F)c(F)c3)cc2N2Cc3ccc(-c4cn[nH]n4)cc3C2=O)O1 (stereo not shown)
- Protection factors [9]: 1.05

- IC50 [2]: < 0.5 µM
- IC50 [3]: < 0.5 µM
Structure (SMILES): O=C(O)c1ccc2c(c1)C(=O)N(c1cc(-c3ccc(F)c(F)c3)ccc1C(=O)O)C2=O [Compound 138, 2-(4-Carboxy-3′,4′-difluoro[1,1′-biphenyl]-3-yl)-1,3-dioxo-2,3-dihydro-1H-isoindole-5-carboxylic acid]
